Patent US20130209582A1, “HYDROGEN IODIDE-[…] FOOD AND HYDROGEN IODIDE-CONTAINING DRUG, AND METHOD FOR PRODUCING SAME” (priority 2010, published 2013)

Test: Gastrointestinal absorption and retention in the thyroid gland after taking hydrogen iodide into the body
Format: in vivo
Conditions: through gastrointestinal absorption
Procedure: When taking hydrogen iodide into the body, the hydrogen iodide reaches to the thyroid gland within 30 minutes through gastrointestinal absorption. Since the hydrogen iodide is retained in the thyroid gland for about two hours, it is preferable to take the health food or the pharmaceutical product every two hours in a serious case. Moreover, it is preferable to take them not in large quantities at one time, but in small quantities frequently on an empty stomach.

With I [hydrogen iodide] the “time to reach the thyroid gland” value was ≤ 30 min.
